Assay [1] addresses T1, 2-5A-dependent ribonuclease (Homo sapiens) (UniProt Q05823).
T1 sequence (whole entry): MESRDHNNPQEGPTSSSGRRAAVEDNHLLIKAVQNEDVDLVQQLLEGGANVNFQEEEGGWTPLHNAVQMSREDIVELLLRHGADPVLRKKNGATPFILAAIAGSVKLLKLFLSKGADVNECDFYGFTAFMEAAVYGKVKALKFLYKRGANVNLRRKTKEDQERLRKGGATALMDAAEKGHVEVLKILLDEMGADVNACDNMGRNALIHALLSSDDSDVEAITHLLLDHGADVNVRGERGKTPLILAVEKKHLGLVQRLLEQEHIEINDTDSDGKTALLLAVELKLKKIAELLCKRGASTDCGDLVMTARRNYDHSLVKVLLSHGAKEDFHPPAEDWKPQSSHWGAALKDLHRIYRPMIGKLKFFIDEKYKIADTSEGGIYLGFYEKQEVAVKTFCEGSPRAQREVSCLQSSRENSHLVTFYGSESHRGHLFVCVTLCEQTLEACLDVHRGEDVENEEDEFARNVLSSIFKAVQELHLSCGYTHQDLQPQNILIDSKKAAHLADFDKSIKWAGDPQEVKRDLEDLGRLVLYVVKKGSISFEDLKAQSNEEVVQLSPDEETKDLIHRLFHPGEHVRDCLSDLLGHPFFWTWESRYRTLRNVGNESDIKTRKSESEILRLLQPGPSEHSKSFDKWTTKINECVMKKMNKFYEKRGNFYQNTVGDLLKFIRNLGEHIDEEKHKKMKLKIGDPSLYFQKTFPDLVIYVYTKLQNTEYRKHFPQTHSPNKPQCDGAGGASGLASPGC
Put plainly: Relative ability of compound to activate Ribonuclease L to cleave poly(U)p[32P]Cp, compared to that of 2-5A standard (Crel=1).

In assay [2] the target is T1, 2-5A-dependent ribonuclease (Homo sapiens). Put plainly: Relative binding affinity of compound to human recombinant Ribonuclease L, compared to that of 2-5A standard (Crel=1).
Assay [3] shares this target. Put plainly: Relative ability of compound to activate Ribonuclease L to cleave poly(U)p[32P]Cp, compared to that of 2-5A standard (Crel=1); No cleavage detected.
For assay [4] the target is unchanged. Put plainly: Relative binding affinity of compound to human recombinant Ribonuclease L, compared to that of 2-5A standard (Crel=1); No binding detected.

Turning to `CO[C@H]1[C@@H](OP(=O)(O)OC[C@H]2O[C@@H](n3cnc4c(N)ncnc43)[C@H](OP(=O)(O)OC[C@@H]3CN(CCOCCOCC(=O)NCCOCCOCC(=O)NCCN(CC(=O)NCCN(CC(=O)NCCN(CC(=O)NCCN(CC(N)=O)C(=O)Cn4cc(C)c(=O)[nH]c4=O)C(=O)Cn4cc(C)c(=O)[nH]c4=O)C(=O)Cn4cc(C)c(=O)[nH]c4=O)C(=O)Cn4cc(C)c(=O)[nH]c4=O)C[C@H](n4cnc5c(N)ncnc54)O3)[C@@H]2O)[C@H](n2cnc3c(N)ncnc32)O[C@@H]1COP(=O)(O)O`, the results for the Crel in assay [1] and in assay [2] were 47.6 and 0.7, respectively.
Regarding `Cc1cn(CC(=O)N(CCNC(=O)CN(CCNC(=O)CN(CCNC(=O)CN(CCNC(=O)COCCOCCNC(=O)COCCOCCN2CC(COP(=O)(O)O)OC(n3cnc4c(N)ncnc43)C2)C(=O)Cn2cc(C)c(=O)[nH]c2=O)C(=O)Cn2cc(C)c(=O)[nH]c2=O)C(=O)Cn2cc(C)c(=O)[nH]c2=O)CC(N)=O)c(=O)[nH]c1=O` (stereo not given), the Crel entry in assay [3] is “No cleavage”; in assay [4], “No binding”.
`Nc1ncnc2c1ncn2[C@@H]1O[C@H](COP(=O)(O)O[C@@H]2[C@H](O)[C@@H](COP(=O)(O)O[C@@H]3[C@H](O)[C@@H](COP(=O)(O)O)O[C@H]3n3cnc4c(N)ncnc43)O[C@H]2n2cnc3c(N)ncnc32)[C@@H](O)[C@H]1O`: the Crel in assay [1] and in assay [2] was 1 each time.
For the molecule `CO[C@H]1[C@@H](OP(=O)(O)OC[C@H]2O[C@@H](n3cnc4c(N)ncnc43)[C@H](OP(=O)(O)OC[C@H]3O[C@@H](n4cnc5c(N)ncnc54)[C@H](OP(=O)(O)OC[C@H]4O[C@@H](n5cnc6c(N)ncnc65)[C@H](OP(=O)(O)O[C@@H]5CN(CCOCCOCC(=O)NCCOCCOCC(=O)NCCN(CC(=O)NCCN(CC(=O)NCCN(CC(=O)NCCN(CC(N)=O)C(=O)Cn6cc(C)c(=O)[nH]c6=O)C(=O)Cn6cc(C)c(=O)[nH]c6=O)C(=O)Cn6cc(C)c(=O)[nH]c6=O)C(=O)Cn6cc(C)c(=O)[nH]c6=O)C[C@H](n6cnc7c(N)ncnc76)O5)[C@@H]4O)[C@@H]3OC)[C@@H]2O)[C@H](n2cnc3c(N)ncnc32)O[C@@H]1COP(=O)(O)O`, the Crel in assay [1] amounted to 14; in assay [2] it was 1.
As to `Cc1cn(CC(=O)N(CCNC(=O)CN(CCNC(=O)CN(CCNC(=O)CN(CCNC(=O)COCCOCCNC(=O)COCCOCCN2C[C@@H](COP(=O)(O)O[C@@H]3[C@H](O)[C@@H](COP(=O)(O)O)O[C@H]3n3cnc4c(N)ncnc43)O[C@@H](n3cnc4c(N)ncnc43)C2)C(=O)Cn2cc(C)c(=O)[nH]c2=O)C(=O)Cn2cc(C)c(=O)[nH]c2=O)C(=O)Cn2cc(C)c(=O)[nH]c2=O)CC(N)=O)c(=O)[nH]c1=O`, the Crel result in assay [3] was “No cleavage”; in assay [4], “No binding”.

The values are drawn from ChEMBL document CHEMBL1133042, “Convergent synthesis of ribonuclease L-active 2',5'-oligoadenylate-peptide nucleic acids” (Bioorg Med Chem Lett, 2000).
